Results reported in patent US20030069166A1, “Stimulative agent and stimulative perfume composition” (Shiseido Co., Ltd., priority 1999, published 2003).

Columns and labels:
[1] = test system: Contingent Negative Variation (CNV), electric potential of the brain; assay: Contingent Negative Variation (CNV) measurement while inhaling the aroma sample; assay type: in vivo, human; conditions: for Stimulative or sedative effect by CNV (FIG. 1): 1% ethanol solution of each sample, 5 healthy adult women, over 100% of CNV = stimulative, less than 100% = sedative
Procedure: First of all, the test method of this invention is explained. The change of negative electric potential of brain called Contingent Negative Variation (CNV) was measured. CNV is the gradual fluctuation of electric potential of the brain. It is related to the fluctuation of the mental process and the conscious level such as an attention, expectation and anticipation.
An experiment to study perfume effects was as follows. After two seconds from a warning sound stimulation, a starting signal light of an exercise is turned on. Then, as soon as light is observed, the pushing button behavior is demanded as exercise reaction. In this series of steps, a sample of aroma is located at 10cm before nose tip. The aroma can be always recognized along with breathing. A recording electrode for the CNV measurement is fixed to the frontal region of the head. An electric potential between the frontal region and ear lobe is measured.
The fluctuation area of this section is expressed as comparative percentage (%) to 100% of blank (odorless stimulation). Also, aroma was presented in accordance with Latin square method.

[2] = test system: Contingent Negative Variation (CNV), electric potential of the brain; conditions: administered drug; reported in the literature; cited from earlier work

Row | SMILES | Stimulative or sedative effect by CNV (FIG. 1) [1] | Change of amplitude of CNV after administration [2] | further results
1 | COc1ccc(C=O)cc1 [anisaldehyde, p-methoxy benzaldehyde] | much stronger stimulative effect in comparison with conventional lemon oil | – | Effective amount of anisaldehyde in the perfume ingredients ([1]; concluded from Table 2 (anisaldehyde in anethole)): ≥ 1 wt %
2 | CC=Cc1ccc(OC)cc1 [anethole] | – | – | Measured value of CNV ([1]; ethanol solution including 1 wt % of each sample, % relative to 100% of blank (odorless stimulation)): 108%
3 | O=C1CN=C(c2ccccc2)c2cc([N+](=O)[O-])ccc2N1 [nitrazepam] | – | decrease of amplitude of CNV | –
4 | Cn1c(=O)c2c(ncn2C)n(C)c1=O [caffeine] | – | increase of amplitude of CNV | –
5 | COc1cc(C)cc(OC)c1 [DMB, 1,3-dimethoxy-5-methylbenzene] | sedative effect | – | –
